The values below come from patent US5607926A, “Cephalosporin antibiotics” (Microcide Pharmaceuticals, Inc., priority 1995, dated 1997).

Type in all cases: cell-based
Experiment [1] has as its system S. aureus 76 (Meth^R)(lac^+). The experiment can be described thus: In vitro antibacterial evaluation, MIC by agar dilution, S. aureus 76. As to conditions: Staphylococcus aureus, read-out: MIC. The method, boiled down:
(§1)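 Log-phase cultures (4-6 h broth growth) are adjusted to 0.5 McFarland and diluted to give roughly 10^4 cfu per 1 μL spot. Spots go onto Mueller-Hinton agar containing test compound in two-fold dilutions (128 to ≤0.25 μg/mL), then plates incubate 16-20 hours at 35°-36° C before MIC reading.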

Experiment [2] deals with P. aeruginosa ATCC 27853. The experiment can be described thus: In vitro antibacterial evaluation, MIC by agar dilution, P. aeruginosa ATCC 27853. The following applies: Pseudomonas aeruginosa, ATCC27853, read-out: MIC. The method, boiled down: as §1
(In general: In agar dilution the substance is mixed into plates at graded concentrations.)

Experiment [3] concerns E. faecalis ATCC 29212. The experiment in a line: In vitro antibacterial evaluation, MIC by agar dilution, E. faecalis ATCC 29212. The following applies: Enterococcus faecalis, ATCC29212. The method, boiled down:
as §1

Experiment [4] deals with S. aureus Col8A (Meth^S)(lac^-). The experiment in a line: In vitro antibacterial evaluation, MIC by agar dilution, S. aureus Col8A. The following applies: Staphylococcus aureus. The method, boiled down:
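Log-phase isolates were spot-inoculated at about 10^4 cfu onto Mueller-Hinton agar carrying duplicate two-fold compound levels, 128 μg/mL to ≤0.25 μg/mL, following NCCLS (1991). Plates were read after 16-20 h at 35°-36° C. The lowest growth-inhibiting concentration gave the MIC (μg/ml).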

The subject of experiment [5] is E. faecium ATCC 35667. The experiment can be described thus: In vitro antibacterial evaluation, MIC by agar dilution, E. faecium ATCC 35667. The following applies: Enterococcus faecium, ATCC35667, read-out: MIC. The method, boiled down: as §1
In experiment [6] the test system is E. coli ATCC 25922. The experiment in a line: In vitro antibacterial evaluation, MIC by agar dilution, E. coli ATCC 25922. As to conditions: Escherichia coli, ATCC25922, read-out: MIC. The method, boiled down: as §1
Experiment [7] has as its system S. aureus ATCC 29213. The experiment can be described thus: In vitro antibacterial evaluation, MIC by agar dilution, S. aureus ATCC 29213. The following applies: Staphylococcus aureus, ATCC29213. The method, boiled down:
as §1

The subject of experiment [8] is S. aureus ATCC 25923. The experiment can be described thus: In vitro antibacterial evaluation, MIC by agar dilution, S. aureus ATCC 25923. The following applies: Staphylococcus aureus, ATCC25923. The method, boiled down:
as §1

Experiment [9] has as its system S. haemolyticus (Meth^R). The experiment can be described thus: In vitro antibacterial evaluation, MIC by agar dilution, S. haemolyticus. As to conditions: Staphylococcus haemolyticus, read-out: MIC. The method, boiled down: as §1
Experiment [10] has as its system S. epidermidis ATCC 31432. The experiment can be described thus: In vitro antibacterial evaluation, MIC by agar dilution, S. epidermidis ATCC 31432. The following applies: Staphylococcus epidermidis, ATCC31432. The method, boiled down: as §1
Setting [11] is: E. faecalis ATCC 29212, read-out: MIC.

Converted amounts (≈) assume the structure as drawn. Counter-ions that a name gives are not always drawn. Like-named read-outs stand apart in the source and are kept apart here.

On to `Nc1nc(-c2ccccc2)c(SC2=C(C(=O)O)N3C(=O)[C@@H](NC(=O)Cc4ccccc4)[C@H]3SC2)s1` [Cmpd 92, (7R)-7-[(Phenylacetyl)amino]-3-(2-amino-4-phenyl-thiazol-5-ylthio)-3-cephem-4-carboxylic acid], for which the minimum inhibitory concentration (MIC) (in general, the smallest concentration in the dilution series that meets the test's criterion for growth inhibition) in experiment [1] is 16 µg/mL (≈ 30.5 µM); in experiment [2], above 32 µg/mL; in [3] (setting [11]) it was 16 µg/mL (≈ 30.5 µM); in [4] it was below 0.25 µg/mL; in experiment [5], 16 µg/mL (≈ 30.5 µM); in experiment [6], above 32 µg/mL. In addition, the minimal inhibitory concentration (MIC) is below 0.25 µg/mL in [7], below 0.25 µg/mL in [8], 8 µg/mL (≈ 15.2 µM) in [9] and below 0.25 µg/mL in experiment [10].
With `N#CCC(=O)N[C@@H]1C(=O)N2C(C(=O)O)=C(Sc3cccnc3-c3ccccc3)CS[C@H]12` [Cmpd 85, (7R)-7-[(Cyanoacetyl)amino]-3-(2-phenylpyridin-3-ylthio)-3-cephem-4-carboxylic acid], the minimal inhibitory concentration (MIC) is 16 µg/mL (≈ 35.4 µM) in experiment [1]; above 32 µg/mL in [2]; 4 µg/mL (≈ 8.84 µM) in [3] (setting [11]); below 0.25 µg/mL in experiment [4]; 2 µg/mL (≈ 4.42 µM) in experiment [5]; above 32 µg/mL in experiment [6]. In addition, the minimum inhibitory concentration (MIC) in experiment [7] is below 0.25 µg/mL; in [8] it was below 0.25 µg/mL; in experiment [9] it was 16 µg/mL (≈ 35.4 µM); in experiment [10], below 0.25 µg/mL.
Turning to `N=C(N)SCc1ccccc1SC1=C(C(=O)O)N2C(=O)[C@@H](NC(=O)Cc3ccccc3)[C@H]2SC1` [Cmpd 64, (7R)-7-[(Phenylacetyl)amino]-3-(2-isothiouroniummethylphenylthio)-3-cephem-4-carboxylate, inner salt], the MIC in [1] is 4 µg/mL; in experiment [2], above 32 µg/mL; in [3] (setting [11]), 1 µg/mL; in [4] it was below 0.25 µg/mL; in [5], 0.5 µg/mL; in [6] it was above 32 µg/mL. Besides, the minimum inhibitory concentration (MIC) in [7] was below 0.25 µg/mL; in experiment [8], below 0.25 µg/mL; in experiment [9] it was 8 µg/mL; in [10] it was below 0.25 µg/mL.
For `O=C(Cc1ccccc1)N[C@@H]1C(=O)N2C(C(=O)O)=C(Sc3snnc3-c3ccccc3)CS[C@H]12` [Cmpd 93, (7R)-7-[(Phenylacetyl)amino]-3-(4-phenyl-1,2,3-thiadiazol-5-ylthio)-3-cephem-4-carboxylic acid], the MIC was 8 µg/mL (≈ 15.7 µM) in [1]; above 32 µg/mL in experiment [2]; below 0.25 µg/mL in [3]; below 0.25 µg/mL in experiment [4]; 0.5 µg/mL (≈ 0.979 µM) in [5]; above 32 µg/mL in experiment [6]. Also, the minimum inhibitory concentration (MIC) in experiment [7] was below 0.25 µg/mL; in [8] it was below 0.25 µg/mL; in experiment [9], 8 µg/mL (≈ 15.7 µM); in experiment [10] it was below 0.25 µg/mL.
Take `O=C1CNC(SCc2ccccc2SC2=C(C(=O)O)N3C(=O)[C@@H](NC(=O)Cc4ccccc4)[C@H]3SC2)=N1` [Cmpd 68]: the MIC in [1] is 16 µg/mL (≈ 28.8 µM); in [2], above 32 µg/mL; in experiment [3] (setting [11]) it was 4 µg/mL (≈ 7.21 µM); in [4], below 0.25 µg/mL; in experiment [5], 4 µg/mL (≈ 7.21 µM); in experiment [6], above 32 µg/mL. The MIC in experiment [7] was below 0.25 µg/mL; in [8], below 0.25 µg/mL; in [9], 32 µg/mL (≈ 57.7 µM); in experiment [10] it was below 0.25 µg/mL.
With `C[n+]1ccc(SCc2ccccc2SC2=C(C(=O)[O-])N3C(=O)[C@@H](NC(=O)Cc4ccccc4)[C@H]3SC2)cc1` [Cmpd 73, (7R)-7-[(Phenylacetyl)amino]-3-(2-(N-methylpyridin-4-ium)thiomethyl)phenylthio)-3-cephem-4-carboxylate, inner salt], the MIC in experiment [1] was 16 µg/mL; in [2], above 32 µg/mL; in experiment [3] (setting [11]), 0.5 µg/mL; in [4] it was below 0.25 µg/mL; in [5] it was 1 µg/mL; in experiment [6], above 32 µg/mL. Further, the MIC in experiment [7] is below 0.25 µg/mL; in [8] it was below 0.25 µg/mL; in [9], 32 µg/mL; in experiment [10] it was below 0.25 µg/mL.
